Experimental findings from patent US8895313B2, “Ligands for aggregated tau molecules” (Wista Laboratories Ltd., priority 2008, dated 2014) are described below.

The test has as its target PHF (paired helical filaments) isolated from the brain of an Alzheimer's disease patient (Homo sapiens, UniProt P10636). Put plainly: Competitive binding assay: displacement of primulin fluorescence from PHFs. On the set-up: key to P50: fl indicates that the compound is fluorescent. Consequently, binding levels for the compound in the competition binding assay cannot be determined by fluorescent spectroscopy. The following applies: for IC50: read-out: P50. The method, then: The DSB compounds were tested for their ability to bind to PHF in a competition-style assay.
If a test compound that also binds to PHFs with the same or greater affinity is added, it will displace the reference ligand and reduce the fluorescence signal. In the present assay, the reference compound is primulin, which was added at 1 μM. Test compounds were added at concentrations from 0.05 to 1 μM. The P50 for a test compound is defined as the concentration of compound that reduces the primulin signal to 50% of the control value. This value is, therefore, not an absolute affinity, but a relative affinity compared to the affinity of primulin.
PHFs were isolated from the brain of an Alzheimer's disease patient essentially as described by Wischik et al. (Neurobiology of Aging, Vol. 16, pp. 409-431, 1995). The IFII fraction was isolated by centrifugation on a sucrose gradient as described in the PhD thesis of C. M. Wischik, and was further extracted into an ‘abc sup’ as described by C. M. Wischik (Thesis “The structure and biochemistry of paired helical filaments in Alzheimer's disease” Part I and II; Cambridge University, 1989).
The assay for ligand activity was performed in 96 well plates (Nunc Cat. No. 236108). The test compound at the required concentration was mixed with PHFs, then primulin was added to give a final concentration of 1 μM and a total volume of 100 μl. The concentration of PHFs added was determined for each preparation to give an adequate fluorescence signal, and was typically in the range 1-2 μl/100 μl. The test compounds were typically dissolved in DMSO to give a final concentration of 10% DMSO in the assay. The control fluorescence, in the absence of PHFs, was also measured in the presence of 10% DMSO.
The fluorescence was measured in a Varian Carey Eclipse Fluorescence Spectrophotometer, with the […] wavelength at 480 nm. Excitation spectra were recorded and corrected by subtraction of the signal measured in the absence of PHFs, using the Varian software. The fluorescence signal at the peak […] wavelength of 420 nm was measured from the corrected spectra. The fluorescence values were plotted as a function of concentration of test compound, and the value for P50 measured from the graph.

Setting [1] is: concentration that reduces the signal of 1 μM primulin to 50% of control, relative affinity.
The mark [2] stands for this setting: compound fluorescent, no P50 obtainable.

Structures are written as SMILES.

Sequence of PHF (paired helical filaments) isolated from the brain of an Alzheimer's disease patient (P10636 623-708 limits assumed): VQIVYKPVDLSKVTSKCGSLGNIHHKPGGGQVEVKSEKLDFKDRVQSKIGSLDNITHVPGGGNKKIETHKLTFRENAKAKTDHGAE

Regarding `Cc1ccc2nc(-c3ccc(NC(=O)c4cccnc4)cc3)cn2c1` [AIPN-04], the P50 entry under setting [1] is “no effect”. In the case of `Cc1ccc2nc(-c3ccc(NC(=O)c4ccccn4)cc3)cn2c1` [AIPN-05], the IC50 under setting [1] came out at 510 nM.

On to `Cc1ccc2nc(-c3ccc(NC(=O)c4ccc(F)nc4)cc3)cn2c1` [AIPN-06], for which the P50 result under setting [1] is reported as “no effect”. With `Cc1ccc2nc(-c3ccc(NC(=O)c4cccc(F)n4)cc3)cn2c1` [AIPN-07], the IC50 under setting [1] is over 1000 nM. For `Cc1ccc2nc(-c3ccc(NC(=O)c4ccc([N+](=O)[O-])cc4)cc3)cn2c1` [AIPN-08], the IC50 under setting [1] is 100 nM. Consider `Cc1ccc2nc(-c3ccc(NC(=O)c4ccc([N+](=O)[O-])c(C(F)(F)F)c4)cc3)cn2c1` [AIPN-09], for which, under setting [1], the IC50 amounted to 340 nM. With `Cc1ccc2nc(-c3ccc(NC(=O)c4ccc(NO)c(C(F)(F)F)c4)cc3)cn2c1` [AIPN-10], under setting [1], the IC50 worked out at 180 nM. On to `Cc1ccc2nc(-c3ccc(NC(=O)c4ccc(N)cc4)cc3)cn2c1` [AIPN-11], for which the IC50 under setting [1] was found to be 660 nM. Regarding `CNc1ccc(C(=O)Nc2ccc(-c3cn4cc(C)ccc4n3)cc2)cc1` [AIPN-12], the IC50 under setting [1] stood at 330 nM. For `COc1ccc(C(=O)Nc2ccc(-c3cn4cc(C)ccc4n3)cc2)cc1` [AIPN-13], under setting [1], the IC50 turned out to be 630 nM. Consider `Cc1ccc2nc(-c3ccc(NC(=O)c4ccc(O)cc4)cc3)cn2c1` [AIPN-14], for which the IC50 under setting [1] was 500 nM.

Consider `Cc1ccc2nc(-c3ccc(NC(=O)c4cc(F)c(N(C)C)c(F)c4)cc3)cn2c1` [AIPN-16], for which the IC50 under setting [1] was over 1000 nM.

In the case of `Cc1ccc2nc(-c3ccc(NC(=O)c4ccc(F)c(C(F)(F)F)c4)cc3)cn2c1` [AIPN-17], the P50 result under setting [1] is listed as “no effect”. On to `Cc1ccc2nc(-c3ccc(NC(=O)c4ccc(Cl)nc4)cc3)cn2c1` [AIPN-18], for which the IC50 under setting [1] was over 1000 nM. For the molecule `CNc1ccc(C(=O)Nc2ccc(-c3cn4cc(C)ccc4n3)cc2)cc1F` [AIPN-20], under setting [1], the IC50 is 270 nM. For `CNc1c(F)cc(C(=O)Nc2ccc(-c3cn4cc(C)ccc4n3)cc2)cc1F` [AIPN-21], the IC50 under setting [1] turned out to be 460 nM. On to `Cc1ccc2nc(-c3ccc(NC(=O)c4ccc(N(C)C)c(F)c4)cc3)cn2c1` [AIPN-22], for which the IC50 under setting [1] was 760 nM. Turning to `COc1ccc(C(=O)Nc2ccc(-c3cn4cc(C)ccc4n3)cc2)cc1F` [AIPN-23], the IC50 under setting [1] turned out to be 950 nM. In the case of `COc1c(F)cc(C(=O)Nc2ccc(-c3cn4cc(C)ccc4n3)cc2)cc1F` [AIPN-24], the IC50 under setting [1] was about 1000 nM. With `COc1cc(F)c(C(=O)Nc2ccc(-c3cn4cc(C)ccc4n3)cc2)c(F)c1` [AIPN-25], the IC50 under setting [1] is over 1000 nM. In the case of `Cc1ccc2nc(-c3ccc(NC(=O)c4cc(F)c(O)c(F)c4)cc3)cn2c1` [AIPN-26], the IC50 under setting [1] is over 1000 nM.

In the case of `Cc1ccc2nc(-c3ccc(NC(=O)c4ccc(O)c(F)c4)cc3)cn2c1` [AIPN-27], the IC50 under setting [1] was over 1000 nM. On the same count and under the same terms, then `COc1ccc(C(=O)Nc2ccc(-c3cn4cc(C)ccc4n3)cc2)cc1C(F)(F)F` [AIPN-28], with over 1000 nM. For the molecule `Cc1ccc2nc(-c3ccc(NC(=O)c4ccc(O)cc4F)cc3)cn2c1` [AIPN-29], the IC50 under setting [1] was determined as 700 nM. For the molecule `COc1cc(NC(=O)c2ccc(F)c([N+](=O)[O-])c2)ccc1-c1nc2ccccc2s1` [AUB-01], the IC50 under setting [1] is over 1000 nM. Regarding `COCCOCCOCCOc1cc(NC(=O)c2ccc(F)c([N+](=O)[O-])c2)ccc1-c1nc2ccccc2s1` [AUB-02], under setting [1], the IC50 is over 1000 nM.

With `CN(C)CCOc1cc(NC(=O)c2ccc([N+](=O)[O-])c(C(F)(F)F)c2)ccc1-c1nc2ccccc2s1` [AUB-03], the IC50 under setting [1] is over 1000 nM.

Turning to `Cc1ccc2nc(-c3ccc(/N=N/c4ccc(O)cc4C(F)(F)F)cc3)sc2c1` [BDF-01], the IC50 under setting [1] turned out to be 290 nM. Same read-out and setting: then `Cc1ccc2nc(-c3ccc(/N=N/c4cc(C(F)(F)F)ccc4O)cc3)sc2c1` [BDF-02], with 460 nM; and `COc1ccc2nc(-c3ccc(/N=N/c4ccc(O)cc4C(F)(F)F)cc3)sc2c1` [BDF-03], with 130 nM; and `Oc1ccc(/N=N/c2ccc(-c3nc4ccc(O)cc4s3)cc2)c(C(F)(F)F)c1` [BDF-04], with 80 nM. Regarding `Oc1ccc(/N=N/c2ccc(-c3nc4cc(O)ccc4s3)cc2)c(C(F)(F)F)c1` [BDF-05], the IC50 under setting [1] came to 90 nM. In the case of `CN(C)c1ccc2nc(-c3ccc(/N=N/c4ccc(O)cc4C(F)(F)F)cc3)sc2c1` [BDF-06], under setting [1], the IC50 stood at 40 nM.

For `Oc1ccc(/N=N/c2ccc(-c3nc4ccc(OC(F)(F)F)cc4s3)cc2)cc1` [BDF-07], under setting [1], the IC50 was 720 nM. With `Cc1ccc2nc(-c3ccc(/N=N/c4c(C(F)(F)F)cc(O)cc4C(F)(F)F)cc3)sc2c1` [BDF-08], the P50 result under setting [1] was “no effect”. The same measure, in the same setting: then `Oc1ccc(/N=N/c2ccc(-c3nc4cc(OC(F)(F)F)ccc4s3)cc2)cc1` [BDF-09], with “no effect”.

In the case of `COc1ccc2sc(-c3ccc(/N=N/c4ccc(C(F)(F)F)cc4O)cc3)nc2c1` [BDF-10], the IC50 under setting [1] was 870 nM. For the molecule `COc1ccc2sc(-c3ccc(/N=N/c4ccc(O)cc4C(F)(F)F)cc3)nc2c1` [BDF-11], under setting [1], the IC50 was 600 nM.

With `COc1cccc2sc(-c3ccc(/N=N/c4ccc(C(F)(F)F)cc4O)cc3)nc12` [BDF-12], the IC50 under setting [1] is 700 nM. `COc1cccc2sc(-c3ccc(/N=N/c4ccc(O)cc4C(F)(F)F)cc3)nc12` [BDF-13]: the IC50 under setting [1] stood at 350 nM.

Consider `Oc1ccc(/N=N/c2ccc(-c3nc4ccc(O)cc4s3)c(O)c2)c(C(F)(F)F)c1` [BDF-14], for which, under setting [1], the IC50 is 20 nM. With `Oc1ccc(/N=N/c2ccc(-c3nc4ccc(O)cc4s3)c(O)c2)c(OCCCC(F)(F)F)c1` [BDF-15], under setting [1], the IC50 stood at 140 nM. As to `Oc1ccc(/N=N/c2ccc(-c3nc4ccc(O)cc4s3)cc2O)c(C(F)(F)F)c1` [BDF-16], the IC50 under setting [1] came out at 30 nM. Still for that read-out and setting: then `Oc1ccc(/N=N/c2ccc(-c3nc4ccc(O)cc4s3)cc2O)c(OC(F)(F)F)c1` [BDF-17], with 30 nM. Turning to `COc1ccc2nc(-c3ccc(/C=C/c4ccccc4C(F)(F)F)cc3)sc2c1` [BEFA-01], under setting [1], the P50 result is listed as “no effect”. Still for that read-out and setting: then `COc1ccc2nc(-c3ccc(/C=C/c4cccc(C(F)(F)F)c4)cc3)sc2c1` [BEFA-02], with “no effect”. As to `COc1ccc2nc(-c3ccc(/C=C/c4ccc(C(F)(F)F)cc4)cc3)sc2c1` [BEFA-03], under setting [1], the P50 result was “no effect”.

Turning to `COc1ccc2nc(-c3ccc(/C=C/c4ccc(OCC(F)(F)F)cc4)cc3)sc2c1` [BEFA-04], the P50 result under setting [1] is reported as “no effect”. In the case of `COc1ccc2nc(-c3ccc(/C=C/c4ccc(NC(=O)C(F)(F)F)cc4)cc3)sc2c1` [BEFA-06], the P50 entry under setting [2] was “fl”. Consider `COc1ccc2nc(-c3ccc(/C=C/c4ccc(NCCCC(F)(F)F)cc4)cc3)sc2c1` [BEFA-09], for which the P50 entry under setting [1] is “no effect”. Regarding `COc1ccc2nc(-c3ccc(/C=C/c4ccc(F)cc4)cc3)sc2c1` [BEFA-10], the P50 entry under setting [2] is given as “fl”.

In the case of `COc1ccc2nc(-c3ccc(/C=C/c4ccc(OCCF)cc4)cc3)sc2c1` [BEFA-12], the P50 result under setting [1] is “no effect”. Regarding `Oc1ccc2nc(-c3ccc(/C=C/c4ccc(F)cc4)cc3)sc2c1` [BEHF-01], under setting [2], the P50 result is “fl”. As to `Oc1ccc2nc(-c3ccc(/C=C/c4ccc(NCC(F)(F)F)cc4)cc3)sc2c1` [BEHF-02], the P50 result under setting [2] was “fl”. Regarding `Oc1ccc2nc(-c3ccc(/C=C/c4ccc(NCCCC(F)(F)F)cc4)cc3)sc2c1` [BEHF-04], the P50 entry under setting [1] is reported as “no effect”. In the case of `Oc1ccc2nc(-c3ccc(/C=C/c4cc(OC(F)(F)F)ccc4O)cc3)sc2c1` [BEHF-06], the P50 entry under setting [2] is “fl”. `Oc1ccc(/C=C/c2ccc(-c3nc4ccc(O)cc4s3)cc2)c(C(F)(F)F)c1` [BEHF-07]: the P50 entry under setting [2] is on record as “fl”. For the molecule `Cc1ccc2nc(-c3ccc(/C=C/c4ccccc4)cc3)sc2c1` [BEMA-01], the P50 result under setting [1] was “no effect”. Regarding `Cc1ccc2nc(-c3ccc(/C=C/c4ccccc4N)cc3)sc2c1` [BEMA-05], under setting [1], the P50 entry is recorded as “no effect”.

As to `Cc1ccc2nc(-c3ccc(/C=C/c4cccc(N)c4)cc3)sc2c1` [BEMA-06], the P50 entry under setting [1] is given as “no effect”. For the molecule `Cc1ccc2nc(-c3ccc(/C=C/c4ccc(N(C)C)cc4)cc3)sc2c1` [BEMA-08], the P50 result under setting [2] was “fl”.

Regarding `Cc1ccc2nc(-c3ccc(/C=C/c4ccccc4O)cc3)sc2c1` [BEMA-09], under setting [1], the P50 entry is recorded as “no effect”. `Cc1ccc2nc(-c3ccc(/C=C/c4cccc(O)c4)cc3)sc2c1` [BEMA-10]: the IC50 under setting [1] is about 1200 nM.

Regarding `Cc1ccc2nc(-c3ccc(/C=C/c4ccc(O)cc4)cc3)sc2c1` [BEMA-11], under setting [1], the P50 entry is reported as “no effect”.

For the molecule `COc1cccc(/C=C/c2ccc(-c3nc4ccc(C)cc4s3)cc2)c1` [BEMA-12], the P50 entry under setting [1] is given as “no effect”.
